In patent US8377895B2, “Cyclin-dependent protein kinases inhibitors of Scutellaria flavonoid organic amine derivatives, synthesis and use thereof” (priority 2008, dated 2013):
Converted amounts (≈) assume the structure as drawn. Read-outs that look alike come from different tables or passages of the source.

Legend:
Prostate (PC-3) = experiment: Anticancer activity in vitro (Table 3), PC-3; format: cell-based, human; settings: 48 h; for GI50 / IC50 / LC50: Homo sapiens
Cdk1/Cyclin B = Cdk1/Cyclin B (Homo sapiens, UniProt P06493); experiment: Cdk1/Cyclin B inhibitory activity, Z'-LYTE Kinase Assay; format: biochemical; settings: for IC50: ATP 10 μM, 8 concentrations of 0.01-25 μM
Chain of Cdk1/Cyclin B (P06493 whole entry): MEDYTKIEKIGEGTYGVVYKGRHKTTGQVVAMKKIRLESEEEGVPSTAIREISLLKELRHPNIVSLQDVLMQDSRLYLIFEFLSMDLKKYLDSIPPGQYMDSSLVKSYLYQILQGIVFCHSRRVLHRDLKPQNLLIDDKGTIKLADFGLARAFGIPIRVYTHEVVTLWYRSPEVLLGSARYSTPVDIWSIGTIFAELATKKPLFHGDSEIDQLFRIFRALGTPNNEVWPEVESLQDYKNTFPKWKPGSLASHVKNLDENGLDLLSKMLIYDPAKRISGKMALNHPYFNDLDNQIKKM
Chain of Cdk1/Cyclin B (P14635 whole entry partner): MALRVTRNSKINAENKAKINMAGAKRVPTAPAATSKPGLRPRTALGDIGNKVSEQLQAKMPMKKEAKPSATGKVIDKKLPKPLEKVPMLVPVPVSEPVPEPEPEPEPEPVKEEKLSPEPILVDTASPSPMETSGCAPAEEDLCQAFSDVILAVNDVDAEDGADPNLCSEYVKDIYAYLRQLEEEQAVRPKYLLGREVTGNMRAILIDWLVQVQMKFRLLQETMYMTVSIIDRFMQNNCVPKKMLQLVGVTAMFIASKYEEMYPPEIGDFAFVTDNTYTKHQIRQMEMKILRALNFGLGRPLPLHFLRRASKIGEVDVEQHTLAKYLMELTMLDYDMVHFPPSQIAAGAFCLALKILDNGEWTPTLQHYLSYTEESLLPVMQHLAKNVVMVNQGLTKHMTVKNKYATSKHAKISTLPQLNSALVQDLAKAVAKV

MCF-7 = experiment: cells; settings: Homo sapiens; for CC50: MCF7, read-out: MCF-7 LC50; for GI50: MCF7, read-out: MCT-7 GI50
gastric (BGC-823) = experiment: Anticancer activity in vitro (Table 3), BGC-823; format: cell-based, human; settings: for GI50 / IC50 / CC50: Homo sapiens, BGC-823, 48 h; for BGC-823 TGI: 48 h; for CC50: read-out: BGC-823 LC50
[1] = Druggability screening: blood drug concentration and half-life; settings: equilibrium phase
Breast (MCF-7) = experiment: Anticancer activity in vitro (Table 3), MCF-7; format: cell-based, human; settings: for MCF-7 TGI: 48 h; for GI50 / IC50 / CC50: Homo sapiens, MCF7, 48 h; for CC50: read-out: MCF-7 LC50
[2] = in vivo
[3] = Druggability screening: protein binding rate; format: in vitro ADME
[4] = system: 58 kinds human tumor cell; experiment: NCI growth inhibition of 58 kinds human tumor cell; format: cell-based; settings: 48 h, by NCI, read-out: growth inhibition rates in vitro 58 kinds human tumor cell
[5] = Druggability screening: solubility in PBS (pH7.4); format: physicochemical; settings: pH 7.4, aqueous buffer
CD4+T lymphocytes = experiment: Differentiate growth inhibition of CD4+T lymphocytes; format: cell-based; settings: 48 h, induced by growth factor IL-3 and IL-5, read-out: differentiate growth inhibition rates of CD4+T lymphocytes
Text: These show a good prospect against AIDS, and are going to be prepared anti-AIDS drugs.

For `COc1c(O)c(CN2CCN(C)CC2)c2oc(-c3ccccc3)cc(=O)c2c1O` [6-OCH3— Methylpiperazine Baicalein], the “PC-3 TGI” value (Prostate (PC-3)) was 76.1 µM, the GI50 (Prostate (PC-3)) was 11.2 µM and the IC50 (Prostate (PC-3)) was 87.6 µM. The IC50 (Cdk1/Cyclin B) was 880 nM, the CC50 (MCF-7) was > 100 µM and the GI50 (MCF-7) was 26.1 µM. For the same molecule, the GI50 (gastric (BGC-823)) was 26.2 µM and the IC50 (gastric (BGC-823)) was 115 µM.
Work on `O=c1cc(-c2ccccc2)oc2cc(O)c(O)c(O)c12` [Baicalein, reference compound] yielded a Blood drug concentration [1] of 0.026 µM, an IC50 (Cdk1/Cyclin B) of 2080 nM and a half-life (in vivo) of 316 min.
In the case of `O=C(O)[C@H]1O[C@@H](Oc2cc3oc(-c4ccccc4)cc(=O)c3c(O)c2O)[C@H](O)[C@@H](O)[C@@H]1O` [Baicalin, reference compound], the “inhibition against Cdk1/Cyclin B (in words)” value (Cdk1/Cyclin B) is reported as “slight inhibition” and the IC50 (Cdk1/Cyclin B) is reported as 18100 nM.
`COc1c(O)c(CN(CCO)CCO)c(O)c2c(=O)cc(-c3ccccc3)oc12` [Diethanolamin Wogonin, 6-((bis(2-hydroxyethyl)amino)methyl)-5,7-dihydroxy-8-methoxy-2-phenyl-4H-chromen-4-one] showed an IC50 (Cdk1/Cyclin B) of 310 nM.
In the case of `CN(C)Cc1c(O)c(O)c(O)c2c(=O)cc(-c3ccccc3)oc12` [Dimethylamine Baicalein], the GI50 (MCF-7) is reported as 12.3 µM.
`COc1c(O)c(CN(C)C)c(O)c2c(=O)cc(-c3ccccc3)oc12` [Dimethylamine Wogonin, 6-((dimethylamino)methyl)-5,7-dihydroxy-8-methoxy-2-phenyl-4H-chromen-4-one] gave an IC50 (Cdk1/Cyclin B) of 7630 nM.
Molecule `CN1CCC(c2c(O)cc(O)c3c(=O)cc(-c4ccccc4Cl)oc23)C1CO` (centres unmarked) [Example P276-00, reference compound] has an IC50 (Cdk1/Cyclin B) of 790 nM.
With `CN1CC[C@H](c2c(O)cc(O)c3c(=O)cc(-c4ccccc4Cl)oc23)[C@H](O)C1` [Flavopiridol, reference compound] the GI50 (MCF-7) was 0.048 µM.
For `O=c1cc(-c2ccccc2)oc2c(CN3CCN(CCO)CC3)c(O)c(O)c(O)c12` [Hydroxyethylpiperazine Baicalein, 5,6,7-trihydroxy-8-((4-(2-hydroxyethyl)piperazin-1-yl)methyl)-2-phenyl-4H-chromen-4-one], the “MCF-7 TGI” value (Breast (MCF-7)) was 15.4 µM, the GI50 (Breast (MCF-7)) was 6 µM and the IC50 (Breast (MCF-7)) was 20.4 µM. The CC50 (Breast (MCF-7)) was 32.6 µM, the Blood drug concentration [2] was 31.6 µM and the fraction unbound [3] was 0.04. The “PC-3 TGI” value (Prostate (PC-3)) was 15.4 µM, the GI50 (Prostate (PC-3)) was 6.2 µM and the IC50 (Prostate (PC-3)) was 11.6 µM. It also gave an LC50 (Prostate (PC-3)) of 36.6 µM, an IC50 (Cdk1/Cyclin B) of 280 nM and a half-life (in vivo) of 225 min. For the same molecule, the CC50 (MCF-7) was 42.1 µM, the GI50 (MCF-7) was 13.1 µM and the inhibition at 10 µM [4] was 46.2%. The “BGC-823 TGI” value (gastric (BGC-823)) was 15.4 µM, the GI50 (gastric (BGC-823)) was 6.1 µM and the IC50 (gastric (BGC-823)) was 19.3 µM. The CC50 (gastric (BGC-823)) was 51 µM and the solubility [5] was 607 µM (≈ 250 µg/mL).
Molecule `COc1c(O)c(CN2CCN(CCO)CC2)c(O)c2c(=O)cc(-c3ccccc3)oc12` [Hydroxyethylpiperazine Wogonin, 6-((4-(2-hydroxyethyl)piperazin-1-yl)methyl)-5,7-dihydroxy-8-methoxy-2-phenyl-4H-chromen-4-one] has a Blood drug concentration [2] of 94.0 µM, an inhibition at 10 µM (CD4+T lymphocytes) of 55% and an IC50 (Cdk1/Cyclin B) of 320 nM. It also gave a half-life (in vivo) of 240 min, a CC50 (MCF-7) of 43.1 µM and a GI50 (MCF-7) of 11.1 µM. It also gave a solubility [5] of 9390 µM (≈ 4000 µg/mL).
`O=c1cc(-c2ccccc2)oc2c(CN3CCC(O)C3)c(O)c(O)c(O)c12` (centres unmarked) [Hydroxylpyrrolidine Baicalein, 5,6,7-trihydroxy-8-((3-hydroxypyrrolidin-1-yl)methyl)-2-phenyl-4H-chromen-4-one] gave an IC50 (Cdk1/Cyclin B) of 290 nM.
For `O=c1cc(-c2ccccc2)oc2c(CN3CCC(O)CC3)c(O)c(O)c(O)c12` [Hydroxypiperidin Baicalein, 5,6,7-trihydroxy-8-((4-hydroxypiperidin-1-yl)methyl)-2-phenyl-4H-chromen-4-one], the “MCF-7 TGI” value (Breast (MCF-7)) was 16.4 µM, the GI50 (Breast (MCF-7)) was 6 µM and the IC50 (Breast (MCF-7)) was 20.1 µM. The CC50 (Breast (MCF-7)) was 31 µM, the Blood drug concentration [2] was 28.7 µM and the fraction unbound [3] was 0.09. The “PC-3 TGI” value (Prostate (PC-3)) was 16.4 µM, the GI50 (Prostate (PC-3)) was 6 µM and the IC50 (Prostate (PC-3)) was 18.1 µM. The LC50 (Prostate (PC-3)) was 41 µM, the inhibition at 10 µM (CD4+T lymphocytes) was 46.2% and the IC50 (Cdk1/Cyclin B) was 300 nM. The half-life (in vivo) was 254 min, the CC50 (MCF-7) was 40.1 µM and the GI50 (MCF-7) was 10.2 µM. The inhibition at 10 µM [4] was 40.6%, the “BGC-823 TGI” value (gastric (BGC-823)) was 16.4 µM and the GI50 (gastric (BGC-823)) was 5.7 µM. The IC50 (gastric (BGC-823)) was 18.6 µM, the CC50 (gastric (BGC-823)) was 53.1 µM and the solubility [5] was 377 µM (≈ 145 µg/mL).
For `COc1c(O)c(CN2CCC(O)CC2)c(O)c2c(=O)cc(-c3ccccc3)oc12` [Hydroxypiperidine Wogonin, 5,7-dihydroxy-6-((4-hydroxypiperidin-1-yl)methyl)-8-methoxy-2-phenyl-4H-chromen-4-one], the IC50 (Cdk1/Cyclin B) was 6910 nM.
